The record followed here is patent US12174198B2, “Methods of characterizing condensate-associated characteristics of compounds and uses thereof” (Dewpoint Therapeutics, Inc., priority 2019, dated 2024).

Structures can show the parent of a compound that is named as a salt.

This series has as its target T1, FUS-SNAP condensates (Homo sapiens, UniProt P35637).
T1 sequence (P35637 1-526): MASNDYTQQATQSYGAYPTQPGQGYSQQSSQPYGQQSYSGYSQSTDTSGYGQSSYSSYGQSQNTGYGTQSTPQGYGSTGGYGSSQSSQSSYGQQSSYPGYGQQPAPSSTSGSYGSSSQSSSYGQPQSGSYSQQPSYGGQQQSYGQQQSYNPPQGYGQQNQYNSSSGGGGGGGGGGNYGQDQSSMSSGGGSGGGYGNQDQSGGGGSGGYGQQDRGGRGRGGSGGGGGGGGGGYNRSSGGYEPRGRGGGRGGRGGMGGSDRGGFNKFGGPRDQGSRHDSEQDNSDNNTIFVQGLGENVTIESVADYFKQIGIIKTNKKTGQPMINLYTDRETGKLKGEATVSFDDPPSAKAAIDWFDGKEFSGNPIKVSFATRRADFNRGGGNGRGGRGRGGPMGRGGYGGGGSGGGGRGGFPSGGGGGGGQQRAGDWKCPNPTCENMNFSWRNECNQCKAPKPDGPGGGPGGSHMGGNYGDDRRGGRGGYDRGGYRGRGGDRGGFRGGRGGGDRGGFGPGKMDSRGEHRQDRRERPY
The series is described as follows: Mass spectrometry-based depletion assay of compound partitioning. The format is physicochemical. The settings on record: for Partitioning into FUS-condensates at different compound concentrations (fraction of compound in supernatant): FIG. 8, 0.1 μM, 1 μM and 10 μM, N=3 technical repeats; for Partitioning into FUS-condensates at different compound concentrations (fraction of compound in supernatant) / Measured fraction outside of the FUS-SNAP condensates, single compound test reactions versus mixture of four compounds: 0.01 μM; for Measured fraction outside of the FUS-SNAP condensates, single compound test reactions versus mixture of four compounds: FIG. 9A, 9B, 0.1 μM and 1 μM, triplicate; for Identified partitioning into FUS-condensates: as identified before Example 5; for Ratio of compound concentration in versus compound concentration out, MS-based assay: condensate volume fraction of 1/1000 used. As for the experimental part: Protein Buffer was prepared (50 mM Tris, pH 7.25, 500 mM KCl, 1 mM DTT, and 5% glycerol). The high salt concentration of Protein Buffer prevents phase separation of macromolecules, e.g., proteins, contained therein. 20 μl aliquots of 70 μM FUS-SNAP protein stock solution were prepared in Protein Buffer. The aliquots of FUS-SNAP protein stock solution were frozen and stored prior to use. Dilution Buffer was prepared (14.7 mM Tris, pH 7.25, and 1 mM DTT).
Aliquots of 70 μM FUS-SNAP protein stock solution were thawed at room temperature for about 10 minutes. The aliquots of protein stock solution appeared clear with no visible precipitates. The thawed protein stock solution were filtered using centrifugation filters (Millipore, UFC30VV00). In brief, the aliquots of protein stock solution were added to a centrifugation filed and centrifuged for 1 minutes at 20,000 rcf at room temperature. The flow-through was collected. The protein concentration of the flow-through was measured and a solution of 33.3 μM FUS-SNAP was prepared by diluting the filtered flow-through and Dilution Buffer.
40 μL test reactions were prepared inside a PCR-tube or a PCR-strip (8 wells; AXYGEN™ 8-Strip PCR Tubes, 0.2 mL) using the following: (i) 34 μL Dilution Buffer, with the test compound at a given concentration, and with DMSO to obtain a final DMSO concentration of 1%, and (ii) 6 μL of 33.3 μM FUS-SNAP filtered protein solution. The final concentration of the 40 reactions were 5 μM FUS-SNAP, 75 mM KCl, 20 mM Tris, 0.75% Glycerol, 1 mM DTT, 1% DMSO, and, for the reactions containing a test compound, the desired test compound concentration.
40 μL reference reactions were prepared as described for the test reactions, however, no test compound was added at this stage.
The test reactions and the reference reactions were incubated for 15 minutes at room temperature. It is expected that within the test reactions, condensed high density liquid droplets (mM concentration of protein) of FUS-SNAP protein (condensed phase) are present in an environment of a lower concentrated solution (μM concentration of protein) of FUS-SNAP dilute phase. Test compounds may or may not partition into the condensed phase causing a reduction of the concentration outside (test compound in the dilute phase) and an increase of the concentration inside (test compound in the droplets). The volume of high density liquid droplets is estimated to be at least 1000-fold smaller than the total volume of the reaction, e.g., 20 nL of a condensed phase in a 20 μL reaction.
Following the 15 minute incubation period, the test reactions and reference reactions were processed to separate condensates (the high density liquid droplets) from the supernatant (the dilute phase). Briefly, the test reactions and reference reactions were centrifuged at 10,000 rcf for 10 minutes in a cooled centrifuge at 20° C. When PCR-strips were sued, the rotor used was the Eppendorf F-45-48-5-PCR. 35 μL of the supernatant from each tube was removed and transferred to a new tube being careful not to disturb the pellets, which contained the condensates.
For the reference reactions, a known amount of the test compound was added to the tube containing the supernatant (which contains protein not associated with a condensate), such that the final compound concentration is the same as the initial concentration of the compound in the test reaction. Reference reactions can also be formed by measuring the amount of protein in the supernatant of a test reaction and replicating a supernatant solution based on the obtained information. The known amount of the compound added to the supernatant from the reference reaction was used to calibrate the mass spectrometry signal of the test reaction.
Additionally, the compound was extracted from the test reactions in order to directly measure the amount of compound in the formed condensates. […]

Regarding `O=C1OC2(c3ccc(O)cc3Oc3cc(O)ccc32)c2ccccc21` [Dye 6, Fluorescein], the “Partitioning into FUS-condensates at different compound concentrations (fraction of compound in supernatant)” value was “does not partition into the FUS-condensates at any of the tested concentrations”; the “Measured fraction outside of the FUS-SNAP condensates, single compound test reactions versus mixture of four compounds” value was “in agreement”; the “Identified partitioning into FUS-condensates” value is reported as “not partitioning into FUS-condensates”; the “Ratio of compound concentration in versus compound concentration out, MS-based assay” value (from here on “Ratio of compound concentration”) is reported as 1-100.

For the compound `COC(=O)c1ccccc1-c1c2ccc(=N)cc-2oc2cc(N)ccc12.Cl` [Dye 14, Rhodamine 123], the “Ratio of compound concentration” value is 1-100.

`CCN(CC)c1ccc2c(-c3ccccc3C(=O)O)c3ccc(=[N+](CC)CC)cc-3oc2c1` [Dye 16, Rhodamine B]: the “Measured fraction outside of the FUS-SNAP condensates, single compound test reactions versus mixture of four compounds” value is on record as “in agreement” and the “Ratio of compound concentration” value was 666.

As to `O=C([O-])c1ccccc1C1=c2cc3c4c(c2Oc2c1cc1c5c2CCCN5CCC1)CCC[N+]=4CCC3` [Dye 17, Rhodamine 101 inner salt], the “Partitioning into FUS-condensates at different compound concentrations (fraction of compound in supernatant)” value was “partition into the FUS-condensates at lower compound concentrations”; the “Identified partitioning into FUS-condensates” value is recorded as “partitioning into FUS-condensates”; the “Ratio of compound concentration” value is >8,000.

With `N#CC1=c2cc3c4c(c2Oc2c1cc1c5c2CCCN5CCC1)CCC[N+]=4CCC3` [Dye 18, Rhodamine 800], the “Ratio of compound concentration” value is given as >2,000.
